Source: patent US20190225650A1, “PEPTIDOMIMETIC MACROCYCLES AND USE THEREOF IN REGULATING HIF1ALPHA” (AILERON THERAPEUTICS, INC., priority 2013, published 2019)
Bridge positions count the residues as written; N and C are the ends. Square brackets hold non-standard residues; d marks the D form. Peptide text beside a SMILES is read from it. Phe(4-COOH) = N[C@@H](Cc1ccc(C(=O)O)cc1)C(=O)O; R8 = C=CCCCCCC[C@@](C)(N)C(=O)O; S5 = C=CCCC[C@](C)(N)C(=O)O; Nle = CCCC[C@H](N)C(=O)O

What was measured:
[1] = molecular target: T1, flag-tagged HIF1α (AA 786-826) / His6-tagged p300 (AA 323-423) complex (Homo sapiens, UniProt Q09472); assay: HIF1α p300 displacement assay (TR FRET, +CHAPS); format: binding; details: read-out: IC50 (nM) (HIF1α_p300 Displacement + CHAPS)
T1 construct: His6-tagged p300 (AA 323-423); made in house; host or cells: E. coli (pETDuet vector)
Procedure, shortened: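 In this TR-FRET displacement format, peptides compete HIF1α C-terminal transactivation domain off p300-CH. They were preincubated 1 h at room temperature with 300 nM complex in HEPES pH 7.4/NaCl buffer with 7.5 mM CHAPS and 1 mM DTT. Anti-His-D2 (4 nM) and anti-Flag-K (0.5 μM) followed for 2 h, and a one-site fit of the fluorescence ratio gave IC50.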

HRE-bla ME-180 cells [2] = assay: Reporter gene assay (HRE-bla ME-180 HIF reporter, GeneBLAzer); format: cell-based, human; details: for EC50: 24 hour normoxia
Procedure, shortened: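 A FRET β-lactamase readout of HIF transcription was used. After compound treatment in 0.3% DMSO/media under normoxic conditions, 20 μl of 6× LiveBLAzer-FRET B/G (CCF4-AM) substrate was added. Plates sat 3 hr at room temperature in the dark and were read at 409 Ex/460Em and 409Ex/530Em on a Synergy 2. Inhibition was compared against DMSO vehicle controls, with chetomin as positive control.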

HRE-bla ME-180 cells [3] = assay: Cell proliferation assay (viability, MTT, 1% FBS); format: cell-based, human
Procedure, shortened: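 Viable cell number was measured with the CellTiter 96 (MTT) kit after compounds were applied for a 16 h normoxic (21% O2) pretreatment, followed by further normoxic or hypoxic (1% O2) culture. Cells: 2×10^4 ME-180 per well, Opti-MEM + 1% FBS, 0.5% DMSO vehicle.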

IC50 [1]	EC50 (HRE-bla ME-180 cells [2])	SMILES	18 h Avg % max inhibition at top conc (HIF Rptr-24 hrs normoxia) (μM) (HRE-bla ME-180 cells [2])	Viability 1% FBS AVG (MTT V3-24 hr Normoxia) (μM) (HRE-bla ME-180 cells [3])
> 700 nM	5 to 15 µM	CCCC[C@@H]1NC(=O)[C@H](CC(C)C)NC(=O)[C@H](CC(N)=O)NC(=O)[C@@](C)(NC(=O)[C@H](CCC(=O)O)NC(=O)[C@H](CC(=O)O)NC(=O)[C@@H](NC(=O)[C@H](Cc2ccccc2)NC(C)=O)[C@@H](C)CC)CCCC=CCCCC2(CCCC=CCCC[C@](C)(C(=O)N[C@@H](CCCC)C(=O)N[C@@H](C)C(=O)N[C@@H](CC(C)C)C(N)=O)NC(=O)[C@H]([C@@H](C)CC)NC(=O)[C@H](C(C)C)NC(=O)[C@H](CC(C)C)NC2=O)NC1=O (some centres unmarked) [SP-208]	+++ (≤25 but <50: +++)	++ (≤5 but <15: ++)
> 700 nM	> 30 µM	CCCC[C@H](NC(=O)[C@H](CC(C)C)NC(=O)[C@@H](NC(=O)[C@H](CCC(=O)O)NC(=O)[C@H](CCC(=O)O)NC(=O)[C@H](CC(=O)O)NC(=O)[C@@H](NC(=O)[C@H](CC(N)=O)NC(=O)[C@@H](NC(=O)[C@H](CCC(N)=O)NC(=O)[C@H](CC(=O)O)NC(=O)[C@H](CC(C)C)NC(=O)[C@H](C)NC(=O)[C@]1(C)CCCC=CCCC[C@](C)(NC(=O)CNC(=O)[C@H](CCC(N)=O)NC(=O)[C@H](CC(C)C)NC(=O)[C@H](CC(C)C)NC(C)=O)C(=O)N[C@@H](CCC(=O)O)C(=O)N[C@@H](CC(C)C)C(=O)N[C@@H](CC(C)C)C(=O)N1)C(C)C)[C@@H](C)CC)C(C)C)C(=O)N[C@@]1(C)CCCC=CCCC[C@@](C)(C(=O)N[C@@H](CCCC)C(=O)NCC(N)=O)NC(=O)[C@H]([C@@H](C)CC)NC(=O)[C@H](C(C)C)NC(=O)[C@H](CC(C)C)NC1=O [SP-338] (Ac-LLQG[S5]ELL[S5]ALDQVNIDEEVL[Nle][S5]LVI[S5][Nle]G-NH2; staple 5-9, 23-27)	+++ (≤25 but <50: +++)	++++ (≥30: ++++)
400 to 700 nM	> 30 µM	CC[C@H](C)[C@H](NC(=O)[C@H](Cc1ccccc1)NC(C)=O)C(=O)N[C@@H](CO)C(=O)N[C@@H](CCC(=O)O)C(=O)N[C@@H](CCC(=O)O)C(=O)N[C@H](C(=O)N[C@@H](CC(C)C)C(=O)N[C@@H](CCSC)C(=O)N[C@@]1(C)CCCC=CCCC[C@@](C)(C(=O)N[C@@H](CCSC)C(=O)N[C@@H](C)C(=O)N[C@@H](CC(C)C)C(N)=O)NC(=O)[C@H]([C@@H](C)CC)NC(=O)[C@H](C(C)C)NC(=O)[C@H](CC(C)C)NC1=O)C(C)C [SP-230] (Ac-FISEEVLM[S5]LVI[S5]MAL-NH2; staple 9-13)	+ (<10: +)	++++ (≥30: ++++)
400 to 700 nM	5 to 15 µM	CCCC[C@H](NC(=O)[C@H](CCC(=O)O)NC(=O)[C@@H](NC(=O)[C@@H](NC(=O)[C@H](CC(N)=O)NC(=O)[C@]1(C)CCCC=CCCC[C@](C)(NC(=O)[C@H](CCC(=O)O)NC(=O)[C@H](CC(=O)O)NC(=O)[C@@H](NC(=O)[C@H](Cc2ccccc2)NC(C)=O)[C@@H](C)CC)C(=O)N[C@@H](C(C)C)C(=O)N[C@@H](CC(C)C)C(=O)N[C@@H](CCCC)C(=O)N1)C(C)C)[C@@H](C)CC)C(=O)N[C@@H](C)C(=O)N[C@@H](CC(C)C)C(N)=O [SP-143] (Ac-FIDE[S5]VL[Nle][S5]NVIE[Nle]AL-NH2; staple 5-9)	++++ (≥50: ++++)	++ (≤5 but <15: ++)
200 to 400 nM	> 30 µM	CC[C@H](C)[C@H](NC(=O)[C@H](Cc1ccccc1)NC(C)=O)C(=O)N[C@@H](CC(=O)O)C(=O)N[C@@H](Cc1ccc(C(=O)O)cc1)C(=O)N[C@@H](CCC(=O)O)C(=O)N[C@H](C(=O)N[C@@H](CC(C)C)C(=O)N[C@@H](CCSC)C(=O)N[C@@]1(C)CCCC=CCCC[C@@](C)(C(=O)N[C@@H](CCSC)C(=O)N[C@@H](C)C(=O)N[C@@H](Cc2ccccc2)C(N)=O)NC(=O)[C@H]([C@@H](C)CC)NC(=O)[C@H](C(C)C)NC(=O)[C@H](CC(C)C)NC1=O)C(C)C [SP-228] (Ac-FID[Phe(4-COOH)]EVLM[S5]LVI[S5]MAF-NH2; staple 9-13)	+++ (≤25 but <50: +++)	++++ (≥30: ++++)
> 700 nM	> 30 µM	CC[C@H](C)[C@H](NC(=O)[C@H](Cc1ccccc1)NC(C)=O)C(=O)N[C@@H](CC(N)=O)C(=O)N[C@@H](CCC(=O)O)C(=O)N[C@@H](CCCCN)C(=O)N[C@H](C(=O)N[C@@H](CC(C)C)C(=O)N[C@@H](CCSC)C(=O)N[C@@]1(C)CCCC=CCCC[C@@](C)(C(=O)N[C@@H](CCSC)C(=O)N[C@@H](C)C(=O)N[C@@H](CC(C)C)C(=O)N[C@@H](CO)C(=O)N[C@@H](CCCNC(=N)N)C(N)=O)NC(=O)[C@H]([C@@H](C)CC)NC(=O)[C@H](C(C)C)NC(=O)[C@H](CC(C)C)NC1=O)C(C)C [SP-288] (Ac-FINEKVLM[S5]LVI[S5]MALSR-NH2; staple 9-13)	+ (<10: +)	++++ (≥30: ++++)
> 700 nM	> 30 µM	CC[C@H](C)[C@H](NC(=O)[C@H](Cc1ccccc1)NC(C)=O)C(=O)N[C@@H](CC(=O)O)C(=O)N[C@@H](CCC(=O)O)C(=O)N[C@@H](CCC(=O)O)C(=O)N[C@H](C(=O)N[C@@H](CC(C)C)C(=O)N[C@@H](CCSC)C(=O)N[C@@]1(C)CCCC=CCCC[C@@](C)(C(=O)N[C@@H](CCSC)C(=O)N[C@@H](C)C(=O)N[C@@H](CC(C)C)C(N)=O)NC(=O)[C@H]([C@@H](C)CC)NC(=O)[C@H](C(C)C)NC(=O)[C@H](Cc2ccccc2)NC1=O)C(C)C [SP-236] (Ac-FIDEEVLM[S5]FVI[S5]MAL-NH2; staple 9-13)	+++ (≤25 but <50: +++)	++++ (≥30: ++++)
400 to 700 nM	5 to 15 µM	CCCC[C@H](NC(=O)[C@H](CCC(=O)O)NC(=O)[C@@H](NC(=O)[C@@H](NC(=O)[C@H](CC(C)C)NC(=O)[C@]1(C)CCCC=CCCC[C@](C)(NC(=O)[C@H](C)NC(=O)[C@H](CC(=O)O)NC(=O)[C@@H](NC(=O)[C@H](Cc2ccccc2)NC(C)=O)[C@@H](C)CC)C(=O)N[C@@H]([C@@H](C)O)C(=O)N[C@@H](CC(C)C)C(=O)N[C@@H](CCCC)C(=O)N1)C(C)C)[C@@H](C)CC)C(=O)N[C@@H](C)C(=O)N[C@@H](CC(C)C)C(N)=O [SP-149] (Ac-FIDA[S5]TL[Nle][S5]LVIE[Nle]AL-NH2; staple 5-9)	++++ (≥50: ++++)	+ (<5: +)
> 700 nM	> 30 µM	CC[C@H](C)[C@H](NC(=O)[C@H](C)NC(C)=O)C(=O)N[C@@H](CC(=O)O)C(=O)N[C@@H](CCC(=O)O)C(=O)N[C@@H](CCC(=O)O)C(=O)N[C@H](C(=O)N[C@@H](CC(C)C)C(=O)N[C@@H](CCSC)C(=O)N[C@@]1(C)CCCC=CCCC[C@@](C)(C(=O)N[C@@H](CCSC)C(=O)N[C@@H](C)C(=O)N[C@@H](CC(C)C)C(N)=O)NC(=O)[C@H]([C@@H](C)CC)NC(=O)[C@H](C(C)C)NC(=O)[C@H](CC(C)C)NC1=O)C(C)C [SP-217] (Ac-AIDEEVLM[S5]LVI[S5]MAL-NH2; staple 9-13)	+++ (≤25 but <50: +++)	++++ (≥30: ++++)

SMILES	IC50 [1]	EC50 (HRE-bla ME-180 cells [2])	18 h Avg % max inhibition at top conc (HIF Rptr-24 hrs normoxia) (μM) (HRE-bla ME-180 cells [2])	Viability 1% FBS AVG (MTT V3-24 hr Normoxia) (μM) (HRE-bla ME-180 cells [3])
CCCC[C@H](NC(=O)[C@H](CCC(=O)O)NC(=O)[C@]1(C)CCCC=CCCCCCC[C@@](C)(NC(=O)[C@H](CCC(=O)O)NC(=O)[C@H](C)NC(=O)[C@H](C)NC(=O)[C@H](C)NC(=O)[C@H](C)NC(=O)[C@]2(C)CCCC=CCCCCCC[C@@](C)(NC(=O)[C@H](CCC(=O)O)NC(=O)CNC(=O)[C@H](CCC(N)=O)NC(=O)[C@H](CC(C)C)NC(=O)[C@H](CC(C)C)NC(C)=O)C(=O)N[C@@H](CC(C)C)C(=O)N[C@@H](CC(C)C)C(=O)N[C@@H](CCCNC(=N)N)C(=O)N[C@@H](C)C(=O)N[C@@H](CC(C)C)C(=O)N[C@@H](CC(=O)O)C(=O)N2)C(=O)N[C@@H](C(C)C)C(=O)N[C@@H](CC(C)C)C(=O)N[C@@H](CCCC)C(=O)N[C@@H](CO)C(=O)N[C@@H](CC(C)C)C(=O)N[C@@H](C(C)C)C(=O)N1)C(N)=O [SP-352] (Ac-LLQGE[R8]LLRALD[S5]AAAAE[R8]VL[Nle]SLV[S5]E[Nle]-NH2; staple 6-13, 19-26)	≤ 200 nM	> 30 µM	++ (≤10 but <25: ++)	++++ (≥30: ++++)
CC[C@H](C)[C@H](NC(=O)[C@H](Cc1ccccc1)NC(C)=O)C(=O)N[C@@H](CC(=O)O)C(=O)N[C@@H](CCC(=O)O)C(=O)N[C@@]1(C)CCCC=CCCC[C@@](C)(C(=O)N[C@@H](CC(C)C)C(=O)N[C@H](C(=O)N[C@H](C(=O)N[C@@H](CCC(=O)O)C(=O)N[C@@H](CCSC)C(=O)N[C@@H](C)C(=O)N[C@@H](C)C(=O)N[C@@H](C)C(N)=O)[C@@H](C)CC)C(C)C)NC(=O)[C@H](CCSC)NC(=O)[C@H](CC(C)C)NC(=O)[C@H](C(C)C)NC1=O [SP-117] (Ac-FIDE[S5]VLM[S5]LVIEMAAA-NH2; staple 5-9)	> 700 nM	> 30 µM	+++ (≤25 but <50: +++)	++++ (≥30: ++++)
